Data reported in patent publication US20240287074A1, “SALTS AND CRYSTALS” (Kinoxis Therapeutics Pty Ltd, priority 2020, published 2024).
Entries after “also recorded” stand apart in the source; their conditions may differ. Structures can show the parent of a compound that is named as a salt. Marks after values point to notes of the source that are not given here.

How the values were obtained:
[1] = Dynamic / gravimetric vapour sorption (DVS/GVS) hygroscopicity; assay type: physicochemical
[2] = Primary salt screen: XRPD pattern after drying and after 40° C./75% RH; assay type: physicochemical
Procedure: The following procedure was used: • Approximately 30 mg of 1-methyl-1,4,5,10-tetrahydropyrazolo[3,4-b][1,5]benzodiazepine freebase was weighed into 5×1.5 mL glass vials. • 300 μL of selected solvent system was added to each vial to form a mobile slurry, and a beige slurry was observed. • 1.05 (or 0.525 for the hemi experiments) equivalents of acid counterion (see Table 1) was added to each sample and initial observations were recorded. • The samples were temperature cycled between ambient and 40° C. in 4-hour cycles for about 72 hours. • The samples were collected, and observations made. • Samples in which solids were observed were filtered via centrifugation and the solids were loaded onto a multi-well XRPD plate and analyzed by XRPD. • Samples in which no solids were observed were uncapped and left undisturbed to allow evaporation at ambient temperature.

[3] = 1-week stability studies (XRPD, HPLC); assay type: physicochemical; details: 1 week; ambient temperature, light and humidity; 40° C./75% RH; 80° C.
Procedure: The isolated 1-methyl-1,4,5,10-tetrahydropyrazolo[3,4-b][1,5]benzodiazepine freebase was characterized by TG/DTA, DSC, DVS with post-DVS, XRPD, HPLC, ^1H NMR and LC-MS, as per the methods detailed above. The 1-methyl-1,4,5,10-tetrahydropyrazolo[3,4-b][1,5]benzodiazepine freebase was stored at 40° C./75% relative humidity (RH) for 1 week to determine the stability of the material at increased RH and to identify potential hydrate formation.
One-week stability studies were conducted on the freebase (example 1), phosphate form 1 (example 3) and L-tartrate form 1 (example 5) salts using the following procedures: • Approximately 20 mg of each form was weighed into 3×2 mL glass vials. • One vial for each form was stored under the following conditions for 1-week: • 1. Ambient temperature, light and humidity (unsealed vial) • 2. 40° C./75% RH (unsealed vial) • 3. 80° C. (sealed vial) • The samples were collected after 1-week and observations were made. • The solids were analyzed by XRPD and HPLC.

[4] = Salt disproportionation studies in deionized water; assay type: physicochemical; details: about 24 hours
Procedure: The following procedure was used during the salt disproportionation studies: • Approximately 20 mg of phosphate form 1 (Example 3) and L-tartrate form 1 (Example 5) were weighed into 2 mL glass vials. • Deionized water was added to each sample in 100 μL aliquots until a mobile slurry was observed. • The slurries were agitated at ambient temperature for about 24 hours. • The slurries were collected and filtered via centrifugation. • The isolated solids were analyzed by XRPD. • The pH of the mother liquors were recorded.

[5] = Hydration studies in methanol/water mixtures; assay type: physicochemical; details: MeOH/water mixtures, water activity 0.2, 0.6, 0.8, about 24 hours
Procedure: The following procedure was used during the hydration studies: • Approximately 20 mg of phosphate form 1 (Example 3) and L-tartrate form 1 (Example 5) were weighed into 2 mL glass vials. • Selected methanol/deionized water mixtures (see Table 5) were added to each sample in 100 μL aliquots until a mobile slurry was observed. • The slurries were agitated at ambient temperature for about 24 hours. • The slurries were collected and filtered via centrifugation. • The isolated solids were analyzed by XRPD. • The pH of the mother liquors were recorded.

[6] = Oral pharmacokinetics in rats; assay type: in vivo; details: male Sprague Dawley rats; for Plasma AUC0-inf/Dose / Plasma Cmax/Dose: dose-normalised; for Plasma AUC0-inf/Dose / Plasma Cmax/Dose / % Dose in urine: listed as Phosphate salt; for Apparent t1/2 / BA % / Plasma AUC0-inf / Plasma Cmax / Tmax / % Dose in urine: 5 mg/kg target dose (freebase equivalent), 5 mg/kg; for Apparent t1/2 / BA % / Plasma AUC0-inf / Plasma Cmax / Tmax: mean ± SD, n = 3, listed as Phosphate salt; for % Dose in urine: urine up to 24 h
Procedure: N=3 rats were run in each of the four conditions: • (1) Di-HCL salt in saline • (2) Di-HCL salt in methocel • (3) Phosphate form 1 in saline • (4) Phosphate form 1 in methocel
On the day of dosing the solid compounds were dissolved in either Saline (0.9%) or 0.5% hydroxypropyl methylcellulose (Methocel E3 Premium LV) in Milli-Q water. The formulations were then thoroughly vortexed to produce colourless solutions.
Overnight-fasted rats with adlibitum access to water were administered their dose of the various forms of the compound of the invention via oral gavage (PO) at a dose volume of 3 ml/kg and a dose of 5 mg/kg freebase equivalent. Food access was re-instated 4 hours (h) post-dose. Samples of arterial blood were collected up to 24 h post-dose. After collection, samples were centrifuged, plasma was removed and stored frozen at −80° C. before being analysed by LC-MS. Urine samples were collected at pre, 0-4 h, 4-7 h and 7-24 h post-dose and were analysed by LC-MS following extraction.

## Cn1ncc2c1Nc1ccccc1NC2 [Phosphate form 1, phosphoric acid addition salt of 1-methyl-1,4,5,10-tetrahydropyrazolo[3,4-b][1,5]benzodiazepine]
[1]
  change in form by XRPD post-DVS analysis: No evidence of form changes or hydrate formation
[1]; DVS, 25° C.
  hygroscopicity: slightly hygroscopic
[1]; at 90% RH
  DVS mass increase: about 0.4%
[2]; conclusion of salt screen
  thermal stability and hygroscopicity: acceptable thermal stability and hygroscopicity
[2]; oven at 40° C. for about 24 hours, listed as Phosphate pattern 1
  Post-Drying (XRPD pattern): Pattern 1
[2]; salt screen summary
  Comments (stability): Good
[2]; stability chamber at 40° C./75% RH for about 24 hours, listed as Phosphate pattern 1
  Post 40° C./75% RH (XRPD pattern): Pattern 1
[3]
  changes in form by XRPD: no changes in form
  changes in purity by HPLC: did not identify any significant changes in purity
[4]; material slurried in water
  change in XRPD pattern: No change in XRPD pattern
[4]; slurry in deionized water, ambient temperature
  salt disproportionation: Salt disproportionation was not observed; also recorded: No evidence
[5]
  change in XRPD pattern: No change in XRPD pattern
  hydrate formation: Hydrate formation was not observed; also recorded: No evidence
[6]; Methocel
  Plasma AUC0-inf/Dose: 0.85 ± 0.18 (μg*h/mL)/(mg/kg)
  Plasma Cmax/Dose: 0.41 ± 0.05 (μg/mL)/(mg/kg)
  Apparent t1/2: 36 ± 1.2 min
  BA %: 93.2 ± 20^b %
  Plasma AUC0-inf: 4160 ± 880 ng·h/mL
  Plasma Cmax: 2010 ± 250 ng/mL
  Tmax: 15 ± 0 min
  % Dose in urine: 0.222 ± 0.093%
[6]; Saline
  Plasma AUC0-inf/Dose: 1.02 ± 0.36 (μg*h/mL)/(mg/kg)
  Plasma Cmax/Dose: 0.43 ± 0.03 (μg/mL)/(mg/kg)
  Apparent t1/2: 48.6 ± 12 min
  BA %: 111 ± 40^b %
  Plasma AUC0-inf: 4950 ± 1750 ng·h/mL
  Plasma Cmax: 2090 ± 140 ng/mL
  Tmax: 30 ± 24 min
  % Dose in urine: 0.395^d %
[6]; saline or methocel vehicle
  exposure profile compared with dihydrochloride salt form: same exposure profile
